Values belong to the compound of their own block, whether it stands above or below them. Active and inactive are the calls of the source. The calls are words filed in the database; no cut-off is given here.
Key:
[1] = Clearance in male Sprague-Dawley rat at 2 mg/kg, iv measured up to 24 hrs by LC/MS/MS analysis; assay type: ADME, organism-based; conditions: in vivo
[2] = Cmax in female Sprague-Dawley rat at 10 mg/kg, po measured up to 24 hrs by LC-MS/MS analysis; assay type: ADME, organism-based; parameters: route oral, dose 10 mg/kg, time <=24; conditions: in vivo
[3] = AUC (0 to t) in male Sprague-Dawley rat at 2 mg/kg, iv measured up to 24 hrs by LC-MS/MS analysis; assay type: ADME, organism-based; parameters: route intravenous, dose 2 mg/kg, time <=24; conditions: in vivo
[4] = molecular target: NT-3 growth factor receptor (Homo sapiens, UniProt Q16288); test: Inhibition of human TrkC (510 to end residues) assessed as residual activity at 0.5 uM using GEEPLYWSFPAKKK as substrate measured after 40 mins in presence of [gamma33P]ATP by scintillation counting method relative to control
NT-3 growth factor receptor, sequence (Q16288 32-839 limits assumed): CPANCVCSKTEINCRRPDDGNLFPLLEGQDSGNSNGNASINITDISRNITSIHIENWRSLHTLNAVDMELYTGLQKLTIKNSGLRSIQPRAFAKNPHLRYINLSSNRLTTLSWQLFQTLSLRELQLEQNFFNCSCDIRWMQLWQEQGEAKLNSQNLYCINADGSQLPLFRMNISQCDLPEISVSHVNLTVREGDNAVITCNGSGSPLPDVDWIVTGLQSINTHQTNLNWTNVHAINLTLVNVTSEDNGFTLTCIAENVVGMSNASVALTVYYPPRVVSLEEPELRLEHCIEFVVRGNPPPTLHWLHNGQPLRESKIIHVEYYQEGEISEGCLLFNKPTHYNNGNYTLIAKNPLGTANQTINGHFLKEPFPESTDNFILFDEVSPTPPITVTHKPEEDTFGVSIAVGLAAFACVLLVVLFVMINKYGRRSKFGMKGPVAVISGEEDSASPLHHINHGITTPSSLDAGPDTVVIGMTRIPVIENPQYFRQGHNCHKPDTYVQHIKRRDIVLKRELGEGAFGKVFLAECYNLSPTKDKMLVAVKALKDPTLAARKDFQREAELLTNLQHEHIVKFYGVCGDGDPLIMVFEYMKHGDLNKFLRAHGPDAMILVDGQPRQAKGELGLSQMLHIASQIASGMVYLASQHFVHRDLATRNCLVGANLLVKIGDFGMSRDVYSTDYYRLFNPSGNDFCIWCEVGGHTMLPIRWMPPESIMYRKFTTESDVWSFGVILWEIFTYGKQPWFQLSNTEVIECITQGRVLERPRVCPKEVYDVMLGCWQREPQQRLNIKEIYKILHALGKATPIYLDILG

[5] = molecular target: Tyrosine-protein kinase JAK1 (Homo sapiens) (UniProt P23458); test: Inhibition of human JAK1 (866 to end residues) assessed as residual activity at 0.5 uM using GEEPLYWSFPAKKK as substrate after 40 mins by [gamma-33ATP] radiometric assay relative to control
Tyrosine-protein kinase JAK1 (Homo sapiens), sequence (P23458 whole entry): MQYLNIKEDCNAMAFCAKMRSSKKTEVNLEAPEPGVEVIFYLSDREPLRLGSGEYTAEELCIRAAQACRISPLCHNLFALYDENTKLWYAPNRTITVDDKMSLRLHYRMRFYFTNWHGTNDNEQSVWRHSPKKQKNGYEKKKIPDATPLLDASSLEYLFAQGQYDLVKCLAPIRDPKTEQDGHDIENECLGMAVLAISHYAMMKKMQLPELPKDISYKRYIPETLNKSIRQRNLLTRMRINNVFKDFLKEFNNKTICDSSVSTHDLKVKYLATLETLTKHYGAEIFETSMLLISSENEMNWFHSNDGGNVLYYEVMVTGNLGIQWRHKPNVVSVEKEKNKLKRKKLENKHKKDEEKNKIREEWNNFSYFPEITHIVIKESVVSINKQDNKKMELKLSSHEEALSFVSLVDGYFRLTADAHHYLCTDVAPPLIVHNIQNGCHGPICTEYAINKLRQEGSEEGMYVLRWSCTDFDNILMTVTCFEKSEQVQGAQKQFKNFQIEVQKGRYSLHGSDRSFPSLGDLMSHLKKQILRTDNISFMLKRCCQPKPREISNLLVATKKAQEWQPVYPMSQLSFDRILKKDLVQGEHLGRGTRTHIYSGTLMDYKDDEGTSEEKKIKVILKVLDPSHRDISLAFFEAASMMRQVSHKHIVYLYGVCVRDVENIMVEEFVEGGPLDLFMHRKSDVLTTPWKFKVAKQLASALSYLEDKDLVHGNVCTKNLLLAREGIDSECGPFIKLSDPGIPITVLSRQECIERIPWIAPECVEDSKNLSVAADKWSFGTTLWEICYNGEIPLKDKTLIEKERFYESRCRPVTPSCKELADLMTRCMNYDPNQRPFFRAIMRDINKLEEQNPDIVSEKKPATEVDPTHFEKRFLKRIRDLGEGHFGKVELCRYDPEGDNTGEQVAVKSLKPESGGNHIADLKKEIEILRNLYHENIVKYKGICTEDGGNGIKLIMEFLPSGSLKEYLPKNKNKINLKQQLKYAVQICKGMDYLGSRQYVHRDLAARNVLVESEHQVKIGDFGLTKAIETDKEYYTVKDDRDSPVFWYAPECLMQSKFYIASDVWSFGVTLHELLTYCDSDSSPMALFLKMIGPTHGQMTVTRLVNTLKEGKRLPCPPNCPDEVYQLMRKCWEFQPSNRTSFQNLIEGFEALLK

[6] = tested on: Proto-oncogene tyrosine-protein kinase receptor Ret (Homo sapiens), P07949 [V804M]; test: Inhibition of recombinant human Ret V804M mutant (658 to end residues) assessed as residual activity at 0.5 uM using […] as substrate incubated for 40 mins in presence of [gamma33P]ATP by scintillation counting based radiometry assay relative to control
[7] = Toxicity in […] xenografted with mouse BaF3 cells transfected with LMNA-NTRK1 assessed as weight loss at 20 mg/kg, po administered once daily for 21 days and measured twice weekly; assay type: organism-based; conditions: in vivo, 504 h, time 21 day
[8] = molecular target: Fibroblast growth factor receptor 4 (Homo sapiens) (UniProt P22455); test: Inhibition of recombinant human FGFR4 (442 to 755 residues) assessed as residual activity at 0.5 uM using poly(Glu, Tyr) 4:1 as substrate at 40 mins in presence of [gamma-33ATP] by scintillation counting based radiometry assay relative to control
[9] = tested on: BaF3; test: Antitumor activity against mouse BaF3 cells transfected with ETV6-NTRK3-G623R mutant xenografted in mouse assessed as tumor growth inhibition at 5 to 20 mg/kg, po administered once daily for 21 days and measured twice weekly; conditions: dose 5-20 mg/kg, time 21.0 day
[10] = molecular target: Epidermal growth factor receptor (Homo sapiens) (UniProt P00533); test: Inhibition of recombinant human EGFR (696 to end residues) assessed as residual activity at 0.5 uM using poly(Glu, Tyr) 4:1 as substrate at 40 mins in presence of [gamma-33ATP] by scintillation counting based radiometry assay relative to control
[11] = Tmax in male Sprague-Dawley rat at 10 mg/kg, po measured up to 24 hrs by LC-MS analysis; assay type: ADME, organism-based; conditions: in vivo
[12] = tested on: Mast/stem cell growth factor receptor Kit (Homo sapiens), P10721 [D816H]; test: Inhibition of recombinant human C-Kit D816H mutant (544 to end residues) assessed as residual activity at 0.5 uM poly(Glu, Tyr) 4:1 as substrate incubated 40 mins in presence of [gamma-33ATP] by scintillation counting based radiometry assay relative to control
[13] = molecular target: Voltage-gated inwardly rectifying potassium channel KCNH2 (Homo sapiens, UniProt Q12809); test: Inhibition of human ERG
Voltage-gated inwardly rectifying potassium channel KCNH2, sequence (Q12809 whole entry, the tested form may be a part): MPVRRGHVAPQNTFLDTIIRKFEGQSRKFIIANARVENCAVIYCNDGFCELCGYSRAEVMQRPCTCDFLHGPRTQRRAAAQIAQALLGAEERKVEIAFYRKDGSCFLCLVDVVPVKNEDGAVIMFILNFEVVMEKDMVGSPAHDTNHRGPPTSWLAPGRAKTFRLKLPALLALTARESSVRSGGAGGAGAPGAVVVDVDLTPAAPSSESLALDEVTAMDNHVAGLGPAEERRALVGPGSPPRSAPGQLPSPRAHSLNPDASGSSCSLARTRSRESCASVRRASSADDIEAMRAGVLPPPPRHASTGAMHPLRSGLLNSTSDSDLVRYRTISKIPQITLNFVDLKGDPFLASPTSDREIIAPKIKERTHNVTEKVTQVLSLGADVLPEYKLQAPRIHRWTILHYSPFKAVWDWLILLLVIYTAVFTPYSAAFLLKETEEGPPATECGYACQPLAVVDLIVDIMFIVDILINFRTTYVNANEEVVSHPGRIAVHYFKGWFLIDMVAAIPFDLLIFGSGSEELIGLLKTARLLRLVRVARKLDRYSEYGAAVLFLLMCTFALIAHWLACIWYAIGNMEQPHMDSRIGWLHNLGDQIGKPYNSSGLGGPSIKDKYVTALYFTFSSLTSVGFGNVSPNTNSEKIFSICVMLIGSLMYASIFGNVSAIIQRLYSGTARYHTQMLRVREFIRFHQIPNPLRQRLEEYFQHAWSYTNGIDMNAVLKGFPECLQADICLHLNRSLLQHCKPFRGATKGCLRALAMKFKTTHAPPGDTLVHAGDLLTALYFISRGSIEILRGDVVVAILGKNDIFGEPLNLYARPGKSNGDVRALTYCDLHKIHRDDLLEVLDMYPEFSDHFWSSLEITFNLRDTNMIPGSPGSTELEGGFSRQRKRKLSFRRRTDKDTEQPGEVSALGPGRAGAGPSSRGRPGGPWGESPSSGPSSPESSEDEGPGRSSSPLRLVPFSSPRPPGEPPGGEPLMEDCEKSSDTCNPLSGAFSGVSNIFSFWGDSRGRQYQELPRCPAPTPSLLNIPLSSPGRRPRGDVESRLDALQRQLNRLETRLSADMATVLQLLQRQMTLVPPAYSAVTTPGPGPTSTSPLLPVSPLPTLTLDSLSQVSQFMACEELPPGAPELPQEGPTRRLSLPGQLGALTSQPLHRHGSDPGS

[14] = molecular target: Fibroblast growth factor receptor 3 (Homo sapiens) (UniProt P22607); test: Inhibition of recombinant human FGFR3 (447 to 761 residues) assessed as residual activity at 0.5 uM using poly(Glu, Tyr) 4:1 as substrate at 40 mins in presence of [gamma-33ATP] by scintillation counting based radiometry assay relative to control
[15] = Oral bioavailability in female Sprague-Dawley rat at 10 mg/kg measured up to 24 hrs by LC/MS/MS analysis; assay type: ADME, organism-based; conditions: in vivo
[16] = molecular target: BDNF/NT-3 growth factors receptor (Homo sapiens) (UniProt Q16620); test: Inhibition of human TrkB (455 to end residues) assessed as residual activity at 0.5 uM using poly(Glu, Tyr) 4:1 as substrate measured after 40 mins in presence of [gamma33P]ATP by scintillation counting method relative to control
[17] = molecular target: Tyrosine-protein kinase JAK2 (Homo sapiens) (UniProt O60674); test: Inhibition of human JAK2 (808 to end residues) assessed as residual activity at 0.5 uM using KTFCGTPEYLAPEVRREPRILSEEEQEMFRDFDYIADWC as substrate after 40 mins by [gamma-33ATP] radiometric assay relative to control
[18] = molecular target: Macrophage-stimulating protein receptor (Homo sapiens) (UniProt Q04912); test: Inhibition of recombinant human Ron (983 to end residues) assessed as residual activity at 0.5 uM using GGMEDIYFEFMGGKKK as substrate incubated for 40 mins in presence of [gamma33P]ATP by scintillation counting based radiometry assay relative to control
[19] = tested on: Platelet-derived growth factor receptor alpha (Homo sapiens), P16234 [V561D]; test: Inhibition of human PDGFRalpha V561D mutant (550 to end residues) assessed as residual activity at 0.5 uM using poly(Glu, Tyr) 4:1 as substrate measured after 40 mins in presence of [gamma33P]ATP by scintillation counting based radiometry assay relative to control
[20] = tested on: Tyrosine-protein kinase BTK (Homo sapiens), Q06187 [R28H]; test: Inhibition of recombinant full length human BTK R28H mutant assessed as residual activity at 0.5 uM using LSNLYHQGKFLQT as substrate incubated for 40 mins in presence of [gamma-33P]-ATP by scintillation counting method relative to control
Tyrosine-protein kinase BTK (Homo sapiens), Q06187 [R28H], sequence (Q06187 whole entry R28H): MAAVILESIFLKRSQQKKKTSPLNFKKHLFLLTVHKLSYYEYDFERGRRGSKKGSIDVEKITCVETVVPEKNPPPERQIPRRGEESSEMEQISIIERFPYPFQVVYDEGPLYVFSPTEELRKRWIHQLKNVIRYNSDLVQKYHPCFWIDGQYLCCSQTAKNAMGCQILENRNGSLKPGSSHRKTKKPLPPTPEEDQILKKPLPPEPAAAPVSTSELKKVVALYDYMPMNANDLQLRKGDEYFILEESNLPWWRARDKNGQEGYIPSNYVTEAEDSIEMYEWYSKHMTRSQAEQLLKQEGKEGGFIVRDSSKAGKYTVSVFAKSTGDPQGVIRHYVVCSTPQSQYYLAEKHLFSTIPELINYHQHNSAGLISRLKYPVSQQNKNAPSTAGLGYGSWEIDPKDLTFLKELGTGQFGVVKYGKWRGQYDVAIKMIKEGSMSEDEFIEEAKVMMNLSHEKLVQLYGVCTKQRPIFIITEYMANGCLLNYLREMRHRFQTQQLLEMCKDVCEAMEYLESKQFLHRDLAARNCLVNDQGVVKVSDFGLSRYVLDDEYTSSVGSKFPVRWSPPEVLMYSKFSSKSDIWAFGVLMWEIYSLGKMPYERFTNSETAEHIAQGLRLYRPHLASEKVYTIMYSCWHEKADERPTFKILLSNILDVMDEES

[21] = molecular target: Serine/threonine-protein kinase B-raf (Homo sapiens) (UniProt P15056); test: Inhibition of recombinant […] human B-Raf (416 to end residues) assessed as residual activity at 0.5 uM using myelin basic protein substrate incubated for 40 mins in presence of [gamma-33ATP] by scintillation counting based radiometry assay relative to control
Serine/threonine-protein kinase B-raf (Homo sapiens), sequence (P15056 whole entry): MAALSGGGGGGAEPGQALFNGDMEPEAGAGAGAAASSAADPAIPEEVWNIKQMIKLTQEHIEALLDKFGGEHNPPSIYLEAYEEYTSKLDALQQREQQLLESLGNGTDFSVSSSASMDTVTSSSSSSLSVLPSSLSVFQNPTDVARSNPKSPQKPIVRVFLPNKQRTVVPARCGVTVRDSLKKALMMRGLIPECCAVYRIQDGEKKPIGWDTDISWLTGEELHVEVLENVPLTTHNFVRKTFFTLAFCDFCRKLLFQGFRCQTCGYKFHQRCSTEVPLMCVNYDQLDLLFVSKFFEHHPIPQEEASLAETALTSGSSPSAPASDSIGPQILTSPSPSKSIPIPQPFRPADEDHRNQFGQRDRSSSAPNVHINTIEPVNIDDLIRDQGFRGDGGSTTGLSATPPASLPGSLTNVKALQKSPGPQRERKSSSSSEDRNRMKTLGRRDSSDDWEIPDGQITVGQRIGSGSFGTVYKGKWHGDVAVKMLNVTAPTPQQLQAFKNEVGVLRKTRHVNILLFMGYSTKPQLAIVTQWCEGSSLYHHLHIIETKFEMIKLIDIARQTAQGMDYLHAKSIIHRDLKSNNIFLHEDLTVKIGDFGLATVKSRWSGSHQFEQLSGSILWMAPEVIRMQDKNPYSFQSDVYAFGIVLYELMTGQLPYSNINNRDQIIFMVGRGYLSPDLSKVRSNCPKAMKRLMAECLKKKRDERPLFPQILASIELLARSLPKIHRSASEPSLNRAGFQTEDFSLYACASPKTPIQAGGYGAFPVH

[22] = tested on: Proto-oncogene tyrosine-protein kinase Src (Homo sapiens), P12931 [T341M]; test: Inhibition of recombinant full-length human Src T341M mutant assessed as residual activity at 0.5 uM using GGEEEEYFELVKKKK as substrate measured after 40 mins in presence of [gamma33P]ATP by scintillation counting method relative to control
[23] = AUC (0 to t) in Sprague-Dawley rat at 10 mg/kg, po measured up to 24 hrs by LC-MS/MS analysis; assay type: ADME, organism-based; parameters: route oral, dose 10 mg/kg, time <=24; conditions: in vivo
[24] = tested on: BaF3; test: Antitumor activity against mouse BaF3 cells transfected with LMNA-NTRK1 xenografted in mouse assessed as tumor growth inhibition at 100 mg/kg, po administered once daily for 21 days and measured twice weekly; conditions: time 21.0 day
[25] = Clearance in Sprague-Dawley rat at 3 mg/kg measured up to 24 hrs by LC/MS/MS analysis; assay type: ADME, organism-based; conditions: in vivo

clearance [1]: 19.3 mL/min/kg
Cmax [2]: 6.63 µM
AUC(0-t) at 24 h [3]: 4.19 µM·h
Activity [4]: -3%
Activity [5]: 91%
Activity [6]: 54%
Activity [8]: 114%
Activity [10]: 108%
Tmax [11]: 40 min
Activity [12]: 96%
Activity [14]: 96%
bioavailability [15]: 61.9%
Activity [16]: -1%
Activity [17]: 44%
Activity [18]: 112%
Activity [19]: 103%
Activity [20]: 74%
Activity [21]: 111%
Activity [22]: 55%
SMILES: O=C1NC2(CC2)COc2ncc(F)cc2[C@H]2COCCN2c2ccn3ncc1c3n2
Activity [7]: Toxic
Activity [9]: Active
IC50 [13]: 13 µM

SMILES: C[C@@H]1CCc2ncc(F)cc2[C@H]2CCCN2c2ccn3ncc(c3n2)C(=O)N1 [SELITRECTINIB]
AUC(0-t) at 24 h [23]: 27.3 µM·h
Activity [24]: Active
clearance [25]: 11.8 mL/min/kg
